Among the data in PMC1716192, “A Plant-Derived Morphinan as a Novel Lead Compound Active against Malaria Liver Stages” (PLoS Medicine, 2006) are IC50, IC90 and TC50 values, retold here.

Holding throughout (assay type): cell-based
In series [1] the test system is P. falciparum (NF 54 strain) hepatic stages. Put plainly: In vitro assay for P. falciparum liver stage inhibition in primary human hepatocytes. The note with it: P. falciparum hepatic stages in primary human hepatocytes; for IC50: quantified at 5 d, read-out: IC50. The method, then: (§1) P. yoelii (265 BY strain) and P. falciparum (NF 54 strain) sporozoites were obtained by dissection of infected Anopheles stephensi salivary glands. Primary mouse hepatocytes were isolated as previously described and seeded in eight-well Lab-Tek plastic chamber slides (VWR, Fontenay-sous-Bois, France) previously coated with rat-tail collagen I (BD Biosciences, Le Pont de Claix, France) at a density of 10^5 cells per well. Mouse hepatocytes were cultured at 37 °C in 5% CO2 in William's E medium supplemented with 10% fetal calf serum, 1% L-glutamine, 1% sodium pyruvate, 1% insulin-transferrin-selenium, 1% nonessential amino acids, and 1% penicillin-streptomycin (all from Invitrogen, Cergy-Pontoise, France), for 24 h before inoculation of P. yoelii sporozoites (10^5 per well). Human liver fragments were collected following informed consent provided from patients undergoing a partial hepatectomy. The collection and use of these tissues were undertaken in accordance with French Government ethical regulations. Primary human hepatocytes were isolated from the healthy parts of these liver biopsies as previously described. Human hepatocytes were seeded in LabTek plastic chamber slides coated with collagen, at a density of 1.8 × 10^5 cells per well and cultured at 37 °C in 5% CO2 in the same medium as above, supplemented with 10^−7 M dexamethasone (Sigma) and 2% DMSO after complete cell adherence (12–24 h), for at least 48 h before inoculation of P. falciparum sporozoites (10^5 per well). For a standard assay, the plant extract, the purified compound, or primaquine was solubilized in DMSO, further diluted in culture medium (equal DMSO concentrations of <0.3% per well), and then added to hepatocyte cultures at the time of sporozoite inoculation. Three hours later, after sporozoite penetration into hepatocytes, cultures were washed and further incubated in the presence of the drug. Culture medium containing the appropriate drug concentration was changed daily until 48 h for P. yoelii, or until 5 d for P. falciparum. Parasites were quantified on the last day of incubation. For the in vitro timing experiments, tazopsine treatment of P. yoelii and P. falciparum cultures was undertaken for different periods during the cultivation: 0 h to 3 h, 3 h to 24 h, or 24 h to 48 h after P. yoelii sporozoite inoculation (quantification at 48 h), or 0 h to 2 d, or 3 d to 5 d after P. falciparum sporozoite inoculation (quantification at 5 d). […] Cells were stained with Evans Blue (0.4%), and parasites and cells nuclei were stained with 1 μg/ml of diamidino-phenylindole (DAPI; Sigma). Parasite numbers were counted under a fluorescence microscope with a 25× light microscope objective. IC50 values, the drug concentration at which a 50% reduction in the number of parasites was observed, as compared to the number in the DMSO control cultures, were derived from two independent experiments in which each concentration was tested in triplicate wells.
(§2) IC50 and TC50 were calculated by nonlinear regression using four-parameter logistic curves on the SigmaPlot 10.0 software (http://www.systat.com). Each IC50 or TC50 is expressed as a mean between two independent experiments, followed by the standard error of the mean.

Series [2] concerns P. yoelii (265 BY strain) hepatic stages. Put plainly: In vitro assay for P. yoelii liver stage inhibition in primary mouse hepatocytes. The protocol:
as §1, with “objective.” for “objective. IC50 values, the drug concentration at which a 50% reduction in the number of parasites was observed, as compared to the number in the DMSO control cultures, were derived from two independent experiments in which each concentration was tested in triplicate wells.”
as §2

The test system of series [3] is primary mouse hepatocytes. The series can be described thus: In vitro assay for cell viability (neutral red), mouse hepatocytes. The note with it: 48 h drug exposure. The protocol: (§3) Primary hepatocytes of mice or humans were prepared as above and seeded in 96-well plates coated with collagen, at a density of 5 × 10^4 and 7 × 10^4 cells per well, respectively. Drugs were added to the culture medium, which was changed daily after 24 h or 48 h of incubation for mouse and human hepatocytes, respectively. After 48 h of drug exposure (mouse hepatocytes) or 5 d (human hepatocytes), 50 μl of neutral red (Sigma) at 0.02% in phosphate-buffered saline (PBS) were added per well and incubated for 24 additional hours. Cultures were then washed with PBS and the neutral red extracted with 1% SDS from viable cells and quantified by measuring the OD540 on a microplate autoreader photometer (BioTek Instruments, Winooski, Vermont, United States).
as §2

In series [4] the test system is primary human hepatocytes. The series can be described thus: In vitro assay for cell viability (neutral red), human hepatocytes. The note with it: 5 d drug exposure. The method, then: as §3, §2
The mark [5] stands for this setting: Plasmodium yoelii, Hepatocyte, 48 h.

Structures are written as SMILES. Read-outs that look alike come from different tables or passages of the source.

For `COc1cc(NC(C)CCCN)c2ncccc2c1` (stereo not shown) [Primaquine, reference compound], the IC50 – broadly, the concentration needed to halve the response being measured – is 800 ± 900 nM in series [1]; roughly 1000 nM in series [1] (Plasmodium falciparum, Hepatocyte, 120 h); 640 ± 100 nM in series [2] (P. yoelii hepatic stages in primary mouse hepatocytes, quantified at 48 h, read-out: IC50); roughly 1000 nM in series [2] (Plasmodium yoelii, Hepatocyte, 48 h, P. yoelii hepatic stages in primary mouse hepatocytes, quantified at 48 h, read-out: IC50). Further, the IC90 (in general, the concentration at which the effect reaches the 90% level) is 4100 ± 500 nM in series [1] (Plasmodium falciparum, Hepatocyte, 120 h, 5 d, read-out: IC90) and greater than 30000 nM in series [2] (Plasmodium yoelii, Hepatocyte, P. yoelii hepatic stages in primary mouse hepatocytes, 48 h, read-out: IC90). Besides, the TC50 in series [3] stood at 70500 ± 4300 nM; in series [4], 65200 ± 11900 nM.

Compound `COc1ccc2c3c1O[C@H]1[C@@H](O)C=C[C@H]4[C@@H](C2)N(C)CC[C@@]341` [codeine, reference compound] came in with an IC50 in series [2] (setting [5]) greater than 100000 nM.

For the compound `COC1=CC=C2[C@H]3Cc4ccc(OC)c5c4[C@@]2(CCN3C)[C@H]1O5` [thebaine, reference compound], the IC50 in series [2] (setting [5]) is greater than 100000 nM.
